Assay [1] relates to sialidase activity of A/Memphis/1/1971 (H3N2). Format: biochemical, influenza A virus (H3N2). The conditions noted are these: pH 6.5.
Assay [2] deals with sialidase activity of A/Shizuoka/17/2016 (H1N1pdm). The assay is classed as biochemical, influenza A virus (H1N1pdm). The settings on record: pH 6.5.
For assay [3], the system named is sialidase activity of A/Shizuoka/19/2016 (H1N1pdm). The assay is classed as biochemical, influenza A virus (H1N1pdm). The settings on record: pH 6.5.
The target in assay [4] is MuV sialidase activity (Mumps virus genotype B, UniProt P11235). The assay is classed as biochemical.
MuV sialidase activity, sequence (P11235 whole entry): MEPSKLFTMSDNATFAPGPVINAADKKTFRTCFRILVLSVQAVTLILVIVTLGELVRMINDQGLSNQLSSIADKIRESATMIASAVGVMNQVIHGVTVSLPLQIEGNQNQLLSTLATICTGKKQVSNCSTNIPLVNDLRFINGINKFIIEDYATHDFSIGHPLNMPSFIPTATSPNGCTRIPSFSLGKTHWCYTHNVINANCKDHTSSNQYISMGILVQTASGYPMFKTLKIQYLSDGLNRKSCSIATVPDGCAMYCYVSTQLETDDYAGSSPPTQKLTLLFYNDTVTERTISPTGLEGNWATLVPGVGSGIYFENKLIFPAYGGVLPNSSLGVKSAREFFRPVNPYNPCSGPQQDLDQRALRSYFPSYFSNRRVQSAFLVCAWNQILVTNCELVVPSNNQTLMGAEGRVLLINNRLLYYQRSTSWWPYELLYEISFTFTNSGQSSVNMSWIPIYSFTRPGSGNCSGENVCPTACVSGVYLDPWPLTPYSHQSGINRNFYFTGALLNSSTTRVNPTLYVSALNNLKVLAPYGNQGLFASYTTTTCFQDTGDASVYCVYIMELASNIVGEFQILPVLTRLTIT
Assay [5] has as its target S. pneumoniae sialidase activity (Streptococcus pneumoniae, UniProt P62575). The assay is classed as biochemical. On the set-up: key to Test result in the BTP3-based filter method in the presence of NAI: -, not detected. The conditions noted are these: for NAI susceptibility in the BTP3-based filter method (fluorescence in the presence of NAI): pH 6.5, 56°C 15 min.
In assay [6] the target is sialidase activity of A/Puerto Rico/8/1934 (H1N1) (Influenza A virus, UniProt P03468). Format: biochemical. The conditions noted are these: pH 6.5.
sialidase activity of A/Puerto Rico/8/1934 (H1N1), sequence (P03468 whole entry, looked up): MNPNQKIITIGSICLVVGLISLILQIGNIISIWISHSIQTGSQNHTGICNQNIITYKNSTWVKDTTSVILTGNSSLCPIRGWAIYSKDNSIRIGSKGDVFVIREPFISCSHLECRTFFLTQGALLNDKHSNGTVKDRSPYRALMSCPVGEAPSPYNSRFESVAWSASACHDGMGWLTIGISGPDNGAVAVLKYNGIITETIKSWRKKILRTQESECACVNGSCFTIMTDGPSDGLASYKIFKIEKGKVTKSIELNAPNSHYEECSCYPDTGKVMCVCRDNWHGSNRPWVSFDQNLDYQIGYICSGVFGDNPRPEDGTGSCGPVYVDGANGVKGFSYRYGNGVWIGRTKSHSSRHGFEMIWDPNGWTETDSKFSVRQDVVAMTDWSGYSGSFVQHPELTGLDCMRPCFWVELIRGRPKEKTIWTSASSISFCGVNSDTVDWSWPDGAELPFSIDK
The target in assay [7] is sialidase activity of B/Lee/1940 (Influenza B virus, UniProt P03474). The assay is classed as biochemical. The settings on record: pH 6.5.
sialidase activity of B/Lee/1940, sequence (P03474 whole entry): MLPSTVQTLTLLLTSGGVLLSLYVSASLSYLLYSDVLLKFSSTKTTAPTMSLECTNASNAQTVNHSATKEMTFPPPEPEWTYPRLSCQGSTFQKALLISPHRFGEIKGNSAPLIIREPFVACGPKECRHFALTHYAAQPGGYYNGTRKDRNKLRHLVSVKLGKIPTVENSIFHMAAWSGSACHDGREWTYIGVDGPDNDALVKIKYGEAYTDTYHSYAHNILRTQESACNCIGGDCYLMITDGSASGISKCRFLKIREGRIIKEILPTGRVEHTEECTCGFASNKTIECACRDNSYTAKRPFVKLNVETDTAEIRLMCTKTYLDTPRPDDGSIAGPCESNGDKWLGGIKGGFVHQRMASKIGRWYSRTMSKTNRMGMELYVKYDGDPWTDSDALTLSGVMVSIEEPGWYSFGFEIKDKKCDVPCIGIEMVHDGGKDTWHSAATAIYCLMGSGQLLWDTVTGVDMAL

S. pneumoniae sialidase activity, sequence (P62575 54-1035): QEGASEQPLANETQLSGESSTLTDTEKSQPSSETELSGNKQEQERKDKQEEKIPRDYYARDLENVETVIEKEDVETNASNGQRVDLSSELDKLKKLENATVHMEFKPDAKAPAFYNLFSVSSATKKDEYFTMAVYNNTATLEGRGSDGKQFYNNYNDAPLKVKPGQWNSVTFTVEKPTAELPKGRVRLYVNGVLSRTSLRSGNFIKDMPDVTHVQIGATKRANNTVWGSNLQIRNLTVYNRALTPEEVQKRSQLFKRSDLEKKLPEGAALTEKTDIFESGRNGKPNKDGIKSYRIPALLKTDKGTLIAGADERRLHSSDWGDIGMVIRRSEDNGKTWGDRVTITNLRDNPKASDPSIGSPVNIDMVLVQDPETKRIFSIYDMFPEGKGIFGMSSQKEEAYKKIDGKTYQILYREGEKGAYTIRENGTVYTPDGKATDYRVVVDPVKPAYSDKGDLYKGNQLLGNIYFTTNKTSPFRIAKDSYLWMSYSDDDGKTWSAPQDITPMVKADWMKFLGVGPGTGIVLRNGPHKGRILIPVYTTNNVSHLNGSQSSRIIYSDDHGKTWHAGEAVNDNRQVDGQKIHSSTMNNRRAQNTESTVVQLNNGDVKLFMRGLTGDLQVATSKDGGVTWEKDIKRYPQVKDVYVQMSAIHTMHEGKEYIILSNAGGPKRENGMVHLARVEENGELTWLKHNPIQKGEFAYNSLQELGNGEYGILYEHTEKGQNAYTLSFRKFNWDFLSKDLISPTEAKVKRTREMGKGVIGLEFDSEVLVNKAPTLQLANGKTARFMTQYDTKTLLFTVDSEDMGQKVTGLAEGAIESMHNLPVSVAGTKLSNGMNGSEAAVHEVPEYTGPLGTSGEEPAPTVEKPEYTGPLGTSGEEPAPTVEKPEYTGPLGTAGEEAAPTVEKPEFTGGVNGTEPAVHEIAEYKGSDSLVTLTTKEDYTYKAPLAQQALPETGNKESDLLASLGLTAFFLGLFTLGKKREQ

As for `CC(=O)N[C@H]1[C@H]([C@H](O)[C@H](O)CO)OC(C(=O)O)=C[C@@H]1N=C(N)N` [ZV, zanamivir], the “BTP3 fluorescence on the membrane in the presence of NAI” value (shortened to “BTP3 fluorescence on the membrane”) in assay [1], in assay [2] and in assay [3] was “not observed” each time. In addition, the “Test result in the BTP3-based filter method in the presence of NAI” value (“Test result” for short) in assay [4] and in assay [5] was “Positive” each time. Besides, the “NAI susceptibility in the BTP3-based filter method (fluorescence in the presence of NAI)” value (from here on “NAI susceptibility”) in assay [5] is reported as “showed fluorescence”.

As for `CCC(CC)[C@H](NC(C)=O)[C@@H]1[C@H](O)[C@@H](C(=O)O)C[C@H]1N=C(N)N` [PV, peramivir], the “BTP3 fluorescence on the membrane” value in assay [6], in assay [1], in assay [2], in assay [3] and in assay [7] was “not observed” throughout. Moreover, the “Test result” value in assay [4] and in assay [5] was “Positive” each time. In assay [5], the “NAI susceptibility” value was “showed fluorescence”.

For `CCOC(=O)C1=C[C@@H](OC(CC)CC)[C@H](NC(C)=O)[C@@H](N)C1` [OV, oseltamivir], the “BTP3 fluorescence on the membrane” value in assay [6], in assay [1], in assay [2], in assay [3] and in assay [7] was “not observed” each time. For the same compound, the “Test result” value in assay [4] is on record as “Positive”; in assay [5] it was “-”. For the same compound, in assay [5], the “NAI susceptibility” value is on record as “susceptible”.

Take `[H]/N=C(\N)N[C@H]1C=C(C(=O)O)O[C@@H]([C@H](OC)[C@H](O)CO)[C@@H]1NC(C)=O` [LV, laninamivir]: the “BTP3 fluorescence on the membrane” value in assay [6], in assay [1], in assay [2], in assay [3] and in assay [7] was “not observed” throughout. In addition, the “Test result” value in assay [4] and in assay [5] was “Positive” throughout. In assay [5], the “NAI susceptibility” value is listed as “showed fluorescence”.

Source of the values: PMC6042793 (PLoS ONE, 2018).
